Test results from the NIST ThermoML archive (doi:10.1021/acs.jced.6b00350).
“And” between values parts separate entries of the source, which are not always exact repeats. Equal values may be shown once. Numbers after ± are expanded uncertainties.

Details: Liquid, Hot wire method

FC(F)CC(F)(F)F [1,1,1,3,3-pentafluoropropane]
thermal conductivity (242.09 K, 15292 kPa): 0.1107 ± 0.0014 W/m/K | thermal conductivity (242.09 K, 33385 kPa): 0.1154 ± 0.0015 W/m/K | thermal conductivity (242.09 K, 46702 kPa): 0.1187 ± 0.0015 W/m/K | thermal conductivity (242.09 K, 46703 kPa): 0.1195 ± 0.0015 W/m/K | thermal conductivity (242.1 K, 15296 kPa): 0.1107 ± 0.0014 W/m/K | thermal conductivity (242.1 K, 21026 kPa): 0.1124 ± 0.0014 W/m/K | thermal conductivity (242.1 K, 21045 kPa): 0.1126 ± 0.0014 W/m/K | thermal conductivity (242.1 K, 33384 kPa): 0.1155 ± 0.0015 W/m/K | thermal conductivity (242.1 K, 53712 kPa): 0.1203 ± 0.0015 W/m/K | thermal conductivity (242.11 K, 9885 kPa): 0.1091 ± 0.0014 W/m/K | thermal conductivity (242.11 K, 9889 kPa): 0.1086 ± 0.0014 W/m/K | thermal conductivity (242.11 K, 26987 kPa): 0.1139 ± 0.0014 W/m/K | thermal conductivity (242.11 K, 39778 kPa): 0.1171 ± 0.0015 W/m/K | thermal conductivity (242.12 K, 26965 kPa): 0.1139 ± 0.0014 W/m/K | thermal conductivity (242.12 K, 39775 kPa): 0.1171 ± 0.0015 W/m/K | thermal conductivity (242.12 K, 53701 kPa): 0.1203 ± 0.0015 W/m/K | thermal conductivity (242.12 K, 61286 kPa): 0.1221 ± 0.0015 W/m/K | thermal conductivity (242.13 K, 61278 kPa): 0.1219 ± 0.0015 W/m/K | thermal conductivity (242.14 K, 68636 kPa): 0.1235 ± 0.0016 W/m/K | thermal conductivity (242.14 K, 68676 kPa): 0.1235 ± 0.0016 W/m/K | thermal conductivity (242.19 K, 312 kPa): 0.1058 ± 0.0014 W/m/K and 0.1064 ± 0.0014 W/m/K | thermal conductivity (242.19 K, 4998 kPa): 0.1075 ± 0.0014 W/m/K | thermal conductivity (242.19 K, 5009 kPa): 0.1078 ± 0.0014 W/m/K | thermal conductivity (242.51 K, 46692 kPa): 0.1189 ± 0.0015 W/m/K | thermal conductivity (242.52 K, 46700 kPa): 0.1191 ± 0.0015 W/m/K | thermal conductivity (242.54 K, 33390 kPa): 0.1155 ± 0.0015 W/m/K | thermal conductivity (242.54 K, 33403 kPa): 0.1154 ± 0.0015 W/m/K | thermal conductivity (242.54 K, 53700 kPa): 0.1204 ± 0.0015 W/m/K | thermal conductivity (242.54 K, 53711 kPa): 0.1205 ± 0.0015 W/m/K | thermal conductivity (242.54 K, 61277 kPa): 0.1221 ± 0.0015 W/m/K | thermal conductivity (242.55 K, 15291 kPa): 0.1107 ± 0.0014 W/m/K | thermal conductivity (242.55 K, 21035 kPa): 0.1123 ± 0.0014 W/m/K | thermal conductivity (242.55 K, 21038 kPa): 0.1121 ± 0.0014 W/m/K | thermal conductivity (242.55 K, 39775 kPa): 0.117 ± 0.0015 W/m/K | thermal conductivity (242.55 K, 39776 kPa): 0.1173 ± 0.0015 W/m/K | thermal conductivity (242.55 K, 61245 kPa): 0.122 ± 0.0015 W/m/K | thermal conductivity (242.55 K, 68688 kPa): 0.1238 ± 0.0016 W/m/K | thermal conductivity (242.56 K, 26980 kPa): 0.1136 ± 0.0014 W/m/K | thermal conductivity (242.56 K, 26983 kPa): 0.114 ± 0.0014 W/m/K | thermal conductivity (242.56 K, 68673 kPa): 0.1236 ± 0.0016 W/m/K | thermal conductivity (242.57 K, 9883 kPa): 0.109 ± 0.0014 W/m/K | thermal conductivity (242.58 K, 9889 kPa): 0.1092 ± 0.0014 W/m/K | thermal conductivity (242.65 K, 5012 kPa): 0.1074 ± 0.0014 W/m/K | thermal conductivity (242.66 K, 307 kPa): 0.1056 ± 0.0014 W/m/K | thermal conductivity (242.66 K, 5012 kPa): 0.1074 ± 0.0014 W/m/K | thermal conductivity (242.67 K, 311 kPa): 0.1059 ± 0.0014 W/m/K | thermal conductivity (242.99 K, 46699 kPa): 0.1186 ± 0.0015 W/m/K | thermal conductivity (242.99 K, 46703 kPa): 0.1187 ± 0.0015 W/m/K | thermal conductivity (242.99 K, 53703 kPa): 0.1204 ± 0.0015 W/m/K | thermal conductivity (242.99 K, 53705 kPa): 0.1205 ± 0.0015 W/m/K | thermal conductivity (243 K, 61280 kPa): 0.122 ± 0.0015 W/m/K | thermal conductivity (243.01 K, 33387 kPa): 0.1153 ± 0.0015 W/m/K | thermal conductivity (243.01 K, 61272 kPa): 0.122 ± 0.0015 W/m/K | thermal conductivity (243.01 K, 68624 kPa): 0.1235 ± 0.0016 W/m/K | thermal conductivity (243.01 K, 68665 kPa): 0.1235 ± 0.0016 W/m/K | thermal conductivity (243.02 K, 33391 kPa): 0.1157 ± 0.0015 W/m/K | thermal conductivity (243.02 K, 39783 kPa): 0.117 ± 0.0015 W/m/K | thermal conductivity (243.03 K, 39791 kPa): 0.1173 ± 0.0015 W/m/K | thermal conductivity (243.04 K, 15285 kPa): 0.1108 ± 0.0014 W/m/K | thermal conductivity (243.04 K, 21046 kPa): 0.1119 ± 0.0014 W/m/K | thermal conductivity (243.04 K, 26979 kPa): 0.1139 ± 0.0014 W/m/K | thermal conductivity (243.05 K, 21037 kPa): 0.1122 ± 0.0014 W/m/K | thermal conductivity (243.05 K, 26975 kPa): 0.1137 ± 0.0014 W/m/K | thermal conductivity (243.06 K, 15300 kPa): 0.1105 ± 0.0014 W/m/K | thermal conductivity (243.07 K, 9881 kPa): 0.1091 ± 0.0014 W/m/K | thermal conductivity (243.07 K, 9885 kPa): 0.1094 ± 0.0014 W/m/K | thermal conductivity (243.16 K, 5024 kPa): 0.1074 ± 0.0014 W/m/K | thermal conductivity (243.17 K, 305 kPa): 0.1059 ± 0.0014 W/m/K | thermal conductivity (243.17 K, 5015 kPa): 0.1075 ± 0.0014 W/m/K | thermal conductivity (243.18 K, 306 kPa): 0.1061 ± 0.0014 W/m/K | thermal conductivity (261.13 K, 36952 kPa): 0.1131 ± 0.0014 W/m/K | thermal conductivity (261.13 K, 36968 kPa): 0.1135 ± 0.0014 W/m/K | thermal conductivity (261.17 K, 4289 kPa): 0.1031 ± 0.0013 W/m/K | thermal conductivity (261.17 K, 4298 kPa): 0.1027 ± 0.0013 W/m/K | thermal conductivity (261.17 K, 8849 kPa): 0.103 ± 0.0013 W/m/K | thermal conductivity (261.19 K, 14126 kPa): 0.1062 ± 0.0014 W/m/K | thermal conductivity (261.2 K, 14118 kPa): 0.106 ± 0.0014 W/m/K | thermal conductivity (261.21 K, 254 kPa): 0.1005 ± 0.0013 W/m/K | thermal conductivity (261.21 K, 260 kPa): 0.1005 ± 0.0013 W/m/K | thermal conductivity (261.21 K, 25237 kPa): 0.1087 ± 0.0014 W/m/K | thermal conductivity (261.22 K, 25223 kPa): 0.1081 ± 0.0014 W/m/K | thermal conductivity (261.23 K, 31202 kPa): 0.1113 ± 0.0014 W/m/K | thermal conductivity (261.23 K, 31204 kPa): 0.1116 ± 0.0014 W/m/K | thermal conductivity (261.52 K, 43978 kPa): 0.1147 ± 0.0015 W/m/K | thermal conductivity (261.55 K, 51260 kPa): 0.1154 ± 0.0015 W/m/K | thermal conductivity (261.55 K, 51262 kPa): 0.1153 ± 0.0015 W/m/K | thermal conductivity (261.56 K, 8838 kPa): 0.1026 ± 0.0013 W/m/K | thermal conductivity (261.57 K, 8847 kPa): 0.1029 ± 0.0013 W/m/K | thermal conductivity (261.57 K, 58812 kPa): 0.1174 ± 0.0015 W/m/K | thermal conductivity (261.58 K, 14132 kPa): 0.1051 ± 0.0013 W/m/K | thermal conductivity (261.58 K, 58797 kPa): 0.1178 ± 0.0015 W/m/K | thermal conductivity (261.6 K, 25212 kPa): 0.1084 ± 0.0014 W/m/K | thermal conductivity (261.6 K, 31216 kPa): 0.1112 ± 0.0014 W/m/K | thermal conductivity (261.61 K, 256 kPa): 0.09949 ± 0.0013 W/m/K | thermal conductivity (261.61 K, 263 kPa): 0.09978 ± 0.0013 W/m/K | thermal conductivity (261.61 K, 19564 kPa): 0.1066 ± 0.0014 W/m/K | thermal conductivity (261.61 K, 68826 kPa): 0.1202 ± 0.0015 W/m/K | thermal conductivity (261.61 K, 68837 kPa): 0.1206 ± 0.0015 W/m/K | thermal conductivity (261.62 K, 19569 kPa): 0.107 ± 0.0014 W/m/K | thermal conductivity (261.63 K, 68933 kPa): 0.1198 ± 0.0015 W/m/K | thermal conductivity (261.64 K, 68930 kPa): 0.1197 ± 0.0015 W/m/K | thermal conductivity (261.9 K, 36964 kPa): 0.1125 ± 0.0014 W/m/K | thermal conductivity (261.92 K, 43962 kPa): 0.1136 ± 0.0014 W/m/K | thermal conductivity (261.93 K, 43919 kPa): 0.1146 ± 0.0015 W/m/K | thermal conductivity (261.94 K, 51257 kPa): 0.1157 ± 0.0015 W/m/K | thermal conductivity (261.95 K, 51262 kPa): 0.1157 ± 0.0015 W/m/K | thermal conductivity (261.96 K, 58819 kPa): 0.1174 ± 0.0015 W/m/K | thermal conductivity (261.96 K, 58829 kPa): 0.1179 ± 0.0015 W/m/K | thermal conductivity (261.99 K, 68802 kPa): 0.1199 ± 0.0015 W/m/K | thermal conductivity (261.99 K, 68824 kPa): 0.1198 ± 0.0015 W/m/K | thermal conductivity (262 K, 8855 kPa): 0.1037 ± 0.0013 W/m/K | thermal conductivity (262 K, 8858 kPa): 0.1032 ± 0.0013 W/m/K | thermal conductivity (262 K, 14134 kPa): 0.105 ± 0.0013 W/m/K | thermal conductivity (262.01 K, 4294 kPa): 0.1017 ± 0.0013 W/m/K | thermal conductivity (262.01 K, 4301 kPa): 0.1014 ± 0.0013 W/m/K | thermal conductivity (262.01 K, 14121 kPa): 0.1049 ± 0.0013 W/m/K | thermal conductivity (262.01 K, 25254 kPa): 0.1088 ± 0.0014 W/m/K | thermal conductivity (262.01 K, 25264 kPa): 0.1087 ± 0.0014 W/m/K | thermal conductivity (262.01 K, 31199 kPa): 0.1102 ± 0.0014 W/m/K and 0.1104 ± 0.0014 W/m/K | thermal conductivity (262.01 K, 68921 kPa): 0.1199 ± 0.0015 W/m/K | thermal conductivity (262.02 K, 68914 kPa): 0.1199 ± 0.0015 W/m/K | thermal conductivity (262.04 K, 19538 kPa): 0.1069 ± 0.0014 W/m/K | thermal conductivity (262.04 K, 19563 kPa): 0.1063 ± 0.0014 W/m/K | thermal conductivity (262.06 K, 260 kPa): 0.1002 ± 0.0013 W/m/K | thermal conductivity (262.06 K, 263 kPa): 0.1001 ± 0.0013 W/m/K | thermal conductivity (262.33 K, 36929 kPa): 0.1119 ± 0.0014 W/m/K | thermal conductivity (262.35 K, 36937 kPa): 0.1119 ± 0.0014 W/m/K | thermal conductivity (262.36 K, 43961 kPa): 0.1135 ± 0.0014 W/m/K | thermal conductivity (262.36 K, 43965 kPa): 0.1138 ± 0.0014 W/m/K | thermal conductivity (262.37 K, 51242 kPa): 0.1157 ± 0.0015 W/m/K | thermal conductivity (262.38 K, 51253 kPa): 0.1155 ± 0.0015 W/m/K | thermal conductivity (262.39 K, 58814 kPa): 0.1181 ± 0.0015 W/m/K | thermal conductivity (262.39 K, 58816 kPa): 0.1176 ± 0.0015 W/m/K | thermal conductivity (262.4 K, 68835 kPa): 0.1199 ± 0.0015 W/m/K | thermal conductivity (262.41 K, 68836 kPa): 0.1198 ± 0.0015 W/m/K | thermal conductivity (262.43 K, 68875 kPa): 0.1199 ± 0.0015 W/m/K | thermal conductivity (262.43 K, 68907 kPa): 0.1196 ± 0.0015 W/m/K | thermal conductivity (262.46 K, 8826 kPa): 0.1033 ± 0.0013 W/m/K | thermal conductivity (262.46 K, 25272 kPa): 0.1083 ± 0.0014 W/m/K
